For one compound, fraction unbound results are on record in US20100216751A1 (priority 2007, published 2010).

Molecules are shown by their SMILES. Some results are limits rather than exact numbers.

This data set addresses human serum albumin (Homo sapiens, UniProt P02768). Description: Protein binding to human serum albumin. Format: in vitro ADME.

Sequence of human serum albumin (P02768 25-609): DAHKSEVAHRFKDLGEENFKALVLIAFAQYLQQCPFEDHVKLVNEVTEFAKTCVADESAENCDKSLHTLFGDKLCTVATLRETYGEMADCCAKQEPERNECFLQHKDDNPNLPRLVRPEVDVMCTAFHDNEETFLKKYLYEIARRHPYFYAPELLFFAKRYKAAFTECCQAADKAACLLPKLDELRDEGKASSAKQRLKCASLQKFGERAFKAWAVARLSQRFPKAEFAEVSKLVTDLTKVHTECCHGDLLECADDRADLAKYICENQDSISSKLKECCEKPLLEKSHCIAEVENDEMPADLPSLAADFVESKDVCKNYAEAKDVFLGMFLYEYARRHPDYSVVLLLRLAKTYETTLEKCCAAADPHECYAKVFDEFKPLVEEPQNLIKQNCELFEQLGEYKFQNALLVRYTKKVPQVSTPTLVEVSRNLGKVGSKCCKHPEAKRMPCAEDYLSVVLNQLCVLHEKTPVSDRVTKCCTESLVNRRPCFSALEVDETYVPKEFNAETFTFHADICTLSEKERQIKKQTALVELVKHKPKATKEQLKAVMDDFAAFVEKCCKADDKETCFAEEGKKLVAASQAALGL

`C=C(C)[C@@H]1CC[C@]2(C(=O)O)CC[C@]3(C)[C@H](CC[C@@H]4[C@@]5(C)CC[C@H](OC(=O)CC(C)(C)C(=O)O)C(C)(C)[C@@H]5CC[C@]43C)[C@@H]12` [Bevirimat, 3-O-(3′,3′-dimethylsuccinyl)betulinic acid] yielded a fraction unbound of at most 0.01.
